Measurements: patent publication US20250090541A1, “Methods for Treating Neurodegenerative Disorders” (Praetego Inc, priority 2022, published 2025)

Columns and labels:
Format in all cases: in vivo
[1] = Mortality and apparent toxicity, 20 weeks in 3×Tg mice; settings: 1 and 5 mg/kg in drinking water
Procedure: (§1) Female and male 3×Tg mice (MMRRC #034830) were treated daily for 20 weeks with PTG-670 trihydrochloride at 1 and 5 mg/kg in drinking water starting at 19 weeks of age (˜5 months old) (just before cognitive deficits onset).
• 1—Control (B6129SF2/J Jax 101045)), N=7 male, N=7 female, • 2—3×Tg, N=7 male, N=7 female, • 3—3×Tg+PTG-670 1 mg/kg drinking water, N=7 male, N=7 female, • 4—3×Tg+PTG-670 5 mg/kg drinking water, N=7 male, N=7 female.
No mice died during the course of the study.

3×Tg mice [2] = assay: Tactile response (manual von Frey filaments), 3×Tg mice; settings: 3×Tg mice did not develop tactile allodynia
Procedure: as §1
(§2) Tactile and thermal responses were assessed at 5 and 11 weeks. Motor nerve conduction velocity (NCV) was measured at 8, 12 and 20 weeks after treatment. Learning and memory were assessed using the Barnes maze test and the object recognition test at 6, 12, and 18 weeks of treatment. Corneal nerves were imaged by corneal confocal microscopy (CCM) at week 5, 11 and 17. Data represent male and female results combined, unless specified, mean±sem.

3×Tg mice [3] = assay: Thermal response to heat stimuli, 3×Tg mice; settings: 3×Tg mice did not develop significant hypoalgesia
Procedure: as §1, §2

3×Tg mice [4] = assay: Motor nerve conduction velocity (NCV), 3×Tg mice; settings: male 3×Tg mice, 20 weeks time point
Procedure: as §1, §2
Male 3×Tg mice develop significant (p<0.05) nerve conduction velocity slowing by 9 months of age (20 weeks time point) (data not shown). The slowing of NCV was prevented by treatment with PTG-670 at both 1 and 5 mg/kg in drinking water.

3×Tg mice [5] = assay: Barnes maze learning abilities, 3×Tg mice
Procedure: as §1, §2
Learning abilities assessed using the Barnes maze were impaired in 3×Tg mice in both male and female around 6-7 months, conform with the literature (Stover et al., 2015).

3×Tg mice [6] = assay: Barnes maze long-term memory, 3×Tg mice
Procedure: as §1, §2
Using the Barnes maze test, long-term memory was assessed between week 12 and 18 of treatment.

3×Tg mice [7] = assay: Object Recognition test, 3×Tg mice; settings: for short term episodic memory deficits in Object recognition test: 5 mg/kg
Procedure: as §1, §2

4-hydroxynonal (4-HNE) = assay: Lipid peroxidation, 4-HNE Oxiselect Elisa in hippocampus homogenates, 3×Tg mice; settings: 5 mg/kg
Procedure: as §1
Lipid peroxidation was assessed using the 4-Hydroxynonal (4-HNE) Oxiselect Elisa in hippocampus homogenates.

Drebrin = assay: Western blot of hippocampus, 3×Tg mice: Drebrin
Procedure: as §1
(§3) Mouse Hippocampus were processed for Western blotting analysis of Drebrin (actin binding protein in dendritic spines, role in neuronal growth, a decrease is a contributing factor in the pathogenesis of memory disturbance), PSD95 (a post-synaptic protein, role in the regulation of excitatory synapse maturity), and NeuN (neuronal nuclear antigen, biomarker for neurons, decrease=neuronal loss) (FIG. 12). The reduced drebrin levels in the hippocampus of 3×Tg mice was ameliorated by 20 weeks of treatment with PTG-670 at 5 mg/kg in drinking water only for female mice. Similarly, levels of PSD95 protein tend to decrease in 3×Tg mice and to be ameliorated by 5 mg/kg PTG670.

PSD95 = assay: Western blot of hippocampus, 3×Tg mice: PSD95
Procedure: as §1, §3

NeuN = assay: Western blot of hippocampus, 3×Tg mice: NeuN
Procedure: as §1, §3

Structure (SMILES): Cc1ncc(CN2CCCCCC2)c(-c2ncc[nH]2)c1O [PTG-670, 5-(azepan-1-ylmethyl)-4-(1H-imidazol-2-yl)-2-methylpyridin-3-ol]
- apparent toxicity [1]: No apparent toxicity was observed
- responses to von Frey filaments (3×Tg mice [2]): did not affect mice responses to von Frey filaments
- responses to heat stimuli (3×Tg mice [3]): did not affect the 3×Tg mice responses to heat stimuli
- slowing of NCV (3×Tg mice [4]; 1 mg/kg in drinking water): prevented
- slowing of NCV (3×Tg mice [4]; 5 mg/kg in drinking water): prevented
- learning abilities in Barnes maze (3×Tg mice [5]; female 3×Tg mice, 1 mg/kg for 18 weeks): significantly improved learning abilities to level similar to control
- learning deficits in Barnes maze (3×Tg mice [5]; male 3×Tg mice): did not improve learning deficits
- long-term memory impairment in Barnes maze (3×Tg mice [6]; female 3×Tg mice, 1 mg/kg, by week 18 of treatment): significantly (p<0.05) prevented
- memory abilities in Barnes maze (3×Tg mice [6]; male 3×TG mice): No difference in memory abilities or effect
- short term episodic memory deficits in Object recognition test (3×Tg mice [7]; after 6 weeks of treatment): significantly (p<0.05) ameliorated
- short term episodic memory deficits in Object recognition test (3×Tg mice [7]; after 18 weeks of treatment): significantly (p<0.05) ameliorated
- short-term episodic memory (recognition index) (3×Tg mice [7]; FIG. 10 legend, 6 to 18 weeks of treatment): alleviated
- 4-HNE levels in hippocampus (4-hydroxynonal (4-HNE)): tend to reduce HNE levels
- reduced drebrin levels in hippocampus (Drebrin; female mice only, 5 mg/kg in drinking water, 20 weeks): ameliorated
- Drebrin in hippocampus (Drebrin; male 3×Tg mice): No differences were observed
- levels of PSD95 protein in hippocampus (PSD95; 5 mg/kg, tendency): ameliorated
- PSD95 in hippocampus (PSD95; male 3×Tg mice): No differences were observed
- neuronal loss (NeuN) in hippocampus (NeuN; female mice only, 5 mg/kg): significantly (p<0.05) elevated
- NeuN in hippocampus (NeuN; male 3×Tg mice): No differences were observed
